Measured values as given in patent US20150023904A1, “NEW APPLICATION OF PVP-I” (priority 2013, published 2015).

System: patients suffering premature ejaculation
Assay: IELT before and after treatment in patients suffering premature ejaculation (Groups a, b, c)
Type: in vivo, human
Description: 31 patients (27±5 years old) suffering premature ejaculation for 0.5 to 2 years who have abandoned other therapies for at least 1 month before participating in this experiment. With normal sexual desire, and without drug abuse experience, suspected drug use, or contact with radioactive materials, all these patients are composed of 10 with circumcision, 1 with renal insufficiency, 2 with unsatisfactory sexual life after marriage, and 1 with weak erection.
Taking intravaginal ejaculatin latency time (IELT) as the experimental parameter, if the time after insertion into the vagina is less than 1 minute, deem it as 1 minute. Take IELT for 3 times before and after the treatment, then calculate the mean value.
The experiment was performed by observation of three groups: a, b and c, wherein,
IELT shall be calculated after 1 month of drug taking respectively.
All the data were analyzed statistically with statistical software SPSS 18.0, and for single variables, t was inspected by taking the inspection standard α=0.05, with the inspection results as below: codes a, b and c represent different groups, the data following denote treatment time, 1 signifies IELT before treatment, 2 represents IELT after treatment and N as the number of patients.

SMILES: CN[C@H]1CC[C@@H](c2ccc(Cl)c(Cl)c2)c2ccccc21 [sertraline]
- number of patients with prolonged IELT after treatment (Group a N=4, Group b N=13, Group c N=14, from scatter plots FIG. 2-4): 4
- IELT after treatment, mean value (after treatment, IELT taken 3 times and averaged, calculated after 1 month of drug taking, IELT less than 1 minute deemed 1 minute): 3.75 min
- IELT before treatment, mean value (before treatment (baseline of the same group), IELT taken 3 times and averaged): 1.25 min
- patients with side effects or adverse reaction (lethargy, dysphoria, bruxism and nausea, disappeared 2 to 3 days after drug withdrawal): 5
